# Measurements published in patent US20220264883A1, “IMIDAZOTHIAZOLE COMPOUNDS AND METHODS FOR TREATING PLANT NEMATODE INFECTIONS” (The Governing Council of the University of Toronto, priority 2019, published 2022).
# pIC50: −log10 of the molar value. Several values for one entry are separate records, joined by “and”; a condition that tells them apart may be missing. Identical values can stand only once.
# Columns and labels:
# M. incognita = assay: Meloidogyne incognita infectivity assays (tomato roots in soil); assay type: in vivo; settings: 45 μM in soil, 8 weeks, eggs per mg root relative to DMSO control
# Description: (§1) An M. incognita population originally collected from grape (Vitis vinifera) in Parlier, Calif., was used for all experiments, and they were maintained on tomato plants (Solanum lycopersicum ‘Rutgers’) as previously described^73. Infective J2 juveniles were collected as described in^73. For the infectivity assays, 90 grams of soil (1:1 sand:loam mix) was added to each cell of several 6-cell plastic garden packs. The soil was drenched with 18 mL of deionized water containing dissolved chemical or DMSO alone. 2,500 infective J2 juveniles were then added to the soil in 2 mL of deionized water, for a total water volume of 20 mL. The final concentration of the chemicals in water was 45 μM. The DMSO concentration varied from 0.1% to 0.8% (v/v) depending on the stock concentration of the chemical. The highest DMSO concentration was used as the DMSO control. The J2s were incubated in the soil and chemical for 24 hours, after which two- to three-week old tomato seedlings were transplanted into the soil (one plant per cell). Two replicates were performed for each chemical treatment, and four replicates were done for the DMSO controls. The whole experiment was replicated twice, in two different batches on two different days, for a total of four replicates for each chemical treatment, and eight replicates for the DMSO controls. Inoculated plants were grown for 8 weeks in a greenhouse, as described^73, under long-day conditions (16-h photoperiod) with 26/18° C. day/night temperatures. After 8 weeks, the plants were destructively harvested. The tops were removed and discarded, and roots were gently washed with water to remove adhering soil. Eggs were extracted by placing rinsed roots in 0.6% sodium hypochlorite and agitating at 300 rpm for 3 min. Roots were then rinsed over nested 250- and 25.4-μm sieves, with eggs collected from the latter and suspended in water. Roots were dried in a 65° C. oven for at least 24 hours, after which dry roots were weighed. The number of eggs from each plant root was counted on a dissection microscope using a haemocytometer, and the number of eggs per milligram of root was calculated by dividing the total egg number by the mass of the dried root material. An average was taken across the replicates performed on the same day, and then normalized to the DMSO control average. To calculate percent effectiveness at inhibiting reproduction, the normalized values were subtracted from 1, and then multiplied by 100. An average percent effectiveness value was then calculated across the two different batches carried out on different days.
# M. incognita J2 larvae = assay: Meloidogyne incognita in vitro assays (J2 movement); assay type: in vivo; settings: 45 μM, 2 days, relative to DMSO control
# Description: (§2) M. incognita (Kofoid & White) Chitwood Race 1 (originally isolated in Maryland) was used for all experiments, and was maintained on pepper (Capsicum annuum L.) cv. PA-136 in a greenhouse as previously described^64. Infective J2 juveniles were collected as described in ref.65. The microwell dose-response experiments were carried out similarly to previously described protocols^64, 66. In brief, 100 J2s, in 10 μL of deionized water, were added to the wells of 96-well polystyrene plates, after which 190 μL of deionized water containing dissolved chemical, or DMSO alone, was added to each well. The chemicals were tested at 45 μM, and the final concentration of DMSO in each well was 0.5% (v/v). The wells were covered with a plastic adhesive strip, and the lids of the plates were sealed with parafilm. The plates were incubated at 25° C. The mobile fraction of worms was quantified by counting the number of mobile and immobile worms after 2 days of incubation, and then dividing the number of mobile worms by the total number of worms in the well. Three technical replicates were performed for each treatment, and an average value for the mobile fraction of worms was calculated across the three replicates. The percent effectiveness at inhibiting nematode movement was calculated by dividing the average value for the chemical treatment by the average value for the DMSO control, then subtracting this value from 1, and then multiplying by 100.
# tomato plants = assay: Root mass of tomato plants in the infectivity assays; assay type: in vivo, Solanum lycopersicum; settings: 45 μM
# Description: as §1
# M. chitwoodi = assay: Root-knot nematode M. chitwoodi mobility (Table 3); assay type: in vivo, Meloidogyne chitwoodi; settings: 45 μM, 2 days of chronic exposure
# Description: as §2
# (§3) M. chitwoodi race 1 (the strain commonly found in the pacific northwest of the United States) was used for all experiments, and was maintained on tomato plants (Solanum lycopersicum ‘Rutgers’) as previously described^73. The M. chitwoodi in vitro assays were performed identically to the M. incognita in vitro assays (see above).
# (§4) The ability of exemplary compounds of the application to kill C. elegans at 100 μM (except for compound If which was tested at 50 μM) and to affect the mobility of M. chitwoodi at 45 μM was tested as described above for M. incognita infective juveniles. Percent mobility was measured after 2 days of chronic exposure to test compounds (Table 3).
# HepG2 cells = assay: HepG2 cell proliferation assay; assay type: cell-based, human; settings: for pIC50: Alamar Blue
# Description: HepG2 cells, which are liver-derived, were counted using a haemocytometer, diluted, and seeded in […] to a final density of 5×10^4 cells/mL in 100 uL of RPMI-1640 medium supplemented with 10% heat inactivated fetal bovine serum (Gibco) and 1.2×Antibiotic-Antimycotic (Gibco). Cells were incubated at 37° C. with 5% CO2 for 24 hours. Subsequently, a 2-fold dilution series of test compound was added to cells at a final volume of 200 uL and incubated at 37° C. with 5% CO2 for 72 hours. After 72 hours, Alamar Blue (Invitrogen) was added to the Hep G2 cells at a final concentration of 0.5× and plates were incubated at 37° C. for 4 hours. Fluorescence was measured at Ex560 nm/Em590 nm and corrected for background from the medium. All assays were performed in technical triplicates and in at least two biological replicates. The IC50 value was defined as the concentration that inhibits cell proliferation by 50% of the untreated control cells.
# M. chitwoodi J2 larvae = assay: Meloidogyne chitwoodi in vitro assays (J2 movement); assay type: in vivo; settings: 45 μM, 2 days, relative to DMSO control
# Description: as §2, §3
# C. elegans [1] = assay: C. elegans viability at a single concentration (Table 3); assay type: in vivo; settings: Caenorhabditis elegans; 100 μM
# Description: (§5) Forty microliters of an HB101 bacterial suspension in liquid NGM (see above) was added to each well of a 96-well flat-bottom culture plate, after which approximately 25 synchronized L1 worms, in 10 μl of M9 buffer (see ref. 59 for the recipe), were added to each well. The synchronized L1 worms were obtained from an embryo preparation performed the previous day (see ref. 59 for the protocol). For the L1 assays, 0.5 μl of chemical solution (or DMSO alone) was immediately added to the wells using a multichannel pipette, the final DMSO concentration is 1% (v/v). The worms were incubated for 3 days at 20° C. and the number of viable animals was counted. […] Although the counts were performed after 3 days of incubation in the chemical, it was noted that the L1s were dead within 24 hours of the addition of the chemicals. For the L2/L3 assays, the worms were incubated in the absence of chemical for 1 day at 20° C. until they reached the L2/L3 stage, at which point chemical was added as described above. The worms were then allowed to incubate for 2 days at 20° C. and the number of viable animals was counted as described for the L1 assay. For the L4 assays, the worms were incubated for 2 days at 20° C. before the addition of chemicals. The L4-stage worms were then incubated in chemical for an additional day before quantifying the number of viable animals. The adult assays were performed the same way as the L4 assays, however HT115 E. coli carrying the empty dsRNA expressing vector L4440 was used in place of HB101 and the worms were cultured at 25° C. as opposed to 20° C. for the entirety of the experiment. The HT115 suspension was made by concentrating a bacterial culture, with an OD600 of ˜ 0.8, five-fold with liquid NGM containing 1 mM IPTG and 100 μg/ml carbenicillin. The HT115 cells were induced with 1 mM IPTG for one hour before concentrating with NGM.
# as §4
# C. elegans [2] = assay: C. elegans minimum lethal concentration dose-response; assay type: in vivo, Caenorhabditis elegans; settings: for minimal effective concentration: Caenorhabditis elegans, C. elegans viability
# Description: as §5
# Compounds Ia to Im, dose-response assays were performed with C. elegans. 8 of the compounds killed C. elegans with minimum lethal concentrations less than or equal to 100 μM (Table 6). Compounds Ia, Ic, and Ij were the most potently lethal nematicides in this assay, having minimum lethal concentrations of 6.25 μM and below. The positive control nematicide tioxazafen killed nematodes at 3.13 μM and above.
# Arabidopsis thaliana = Arabidopsis thaliana greening experiments; assay type: in vivo; settings: 5, 15 and 45 micromolar, greening after 4 days
# Description: Greening experiments were performed with Arabidopsis thaliana seeds of wild type Col-0; seeds were surface sterilized in bleach and plated onto 0.5×MS, 0.5% sucrose agar medium supplemented with compounds of interest at 5, 15 and 45 μM concentrations. After 4 d of stratification at 4° C., plates were transferred to a growth chamber (16 h/8 h, 150 μE/m^2) and greening recorded after 4 days. Pictures were recorded by camera (SONY a7s) with FE1.8/55 lens (FE 55 mm F1.8 ZA; SEL55F18Z). Experiments were performed in triplicate for each treatment.
# [3] = tested on: M. incognita infective juveniles; assay: Meloidogyne incognita dose-response experiments (infective J2 juveniles, FIG. 2); assay type: in vivo; settings: 5, 15, 45 micromolar; third day after water rinse
# Description: M. incognita (Kofoid & White) Chitwood Race 1 (originally isolated in Maryland) was used for all experiments, and were maintained on pepper (Capsicum annuum L.) cv. PA-136 in a greenhouse as previously described^64. Infective J2 juveniles were collected as described in ref. 65. The microwell dose-response experiments were carried out similarly to previously described protocols^64, 66. In brief, 100 J2 s, in 10 μL of deionized water, were added to the wells of 96-well polystyrene plates, after which 190 μL of deionized water containing dissolved chemical, or DMSO alone, was added to each well. The final concentration of DMSO in each well was 0.5% (v/v), except for the water only control which contained no DMSO and no added chemicals. The final concentrations of the chemicals for each dose-response experiment were 5, 15, and 45 μM. The wells were covered with a plastic adhesive strip, and the lids of the plates were sealed with parafilm. The plates were incubated at 25° C. The fraction of active worms was quantified by counting the number of mobile and immobile worms after 1 and 2 days of incubation, and then dividing the number of mobile worms by the total number of worms in the well. After 2 days of incubation, the chemicals were removed and replaced with deionized water (i.e. the water rinse) and the fraction of active worms was quantified 1 day later. A failure of the worms to recover after rinsing with water is consistent with them having been killed by the chemical treatment. Four technical replicates were performed for each treatment.
Compound,% effectiveness at inhibiting reproduction of M. incognita (M. incognita) [%],% effectiveness at reducing M. incognita movement (M. incognita J2 larvae) [%],Normalized root mass (relative to DMSO control) (tomato plants),RKN mobility (M. chitwoodi) [%],"HepG2 IC50 (HepG2 cells; 72 hours, approximate ppm equivalent) [ppm]","pIC50 (HepG2 cells; Homo sapiens, HepG2, 72 hours)",% effectiveness at reducing M. chitwoodi movement (M. chitwoodi J2 larvae) [%],viability at 100 µM (C. elegans [1]) [%],minimal effective concentration (C. elegans [2]),effect on health and greening of Arabidopsis thaliana plants (phytotoxicity) (Arabidopsis thaliana),nematicidal activity on M. incognita infective juveniles [3],pIC50 (HepG2 cells; 72 hours),times more potent at killing C. elegans than compound Ig (C. elegans [2]; ratio of minimum lethal concentrations)
Cc1cn2cc(-c3ccc(Cl)cc3)nc2s1 [Compound Ig],44.2,0.0,1.4,82.4,> 25,< 4.00,5.7,100,> 24.9 µg/mL,–,–,–,–
"Cc1csc2nc(-c3ccc(F)cc3)cn12 [Compound Ik, 6-(4-fluorophenyl)-3-methylimidazo[2,1-b]thiazole]",0.6,–,1.0,–,–,–,–,–,50 µM and 11.6 µg/mL,–,–,–,–
"Cc1csc2nc(-c3ccc(Br)cc3)cn12 [Compound Il, 6-(4-bromophenyl)-3-methylimidazo[2,1-b]thiazole]",8.1,–,1.4,–,–,–,–,–,25 µM and 7.3 µg/mL,–,–,–,–
"Cc1cn2cc(-c3ccc(Br)cc3)nc2s1 [Compound Im, 6-(4-bromophenyl)-2-methylimidazo[2,1-b]thiazole]",1.2,–,1.1,–,–,–,–,–,> 100 µM and > 29.3 µg/mL,–,–,–,–
Cc1cn2cc(-c3ccc(I)cc3)nc2s1 [Ih],25.7,0.0,1.3,82.5,–,–,5.6,95.4,> 100 µM and > 34 µg/mL,–,–,–,–
Cc1cn2cc(-c3ccc(F)cc3)nc2s1 [Ii],–,0.0,–,28.9,–,–,–,100,> 100 µM and > 23.2 µg/mL,–,–,–,–
"O=C(NCCc1ncc(C(F)(F)F)cc1Cl)c1ccccc1C(F)(F)F [fluopyram, reference compound]",–,–,–,–,–,–,–,–,–,phytotoxic at 15 and 45 micromolar,most potent compound tested,–,–
"c1ccc(-c2noc(-c3cccs3)n2)cc1 [tioxazafen, reference compound]",43.7,55.5,1.1,–,–,–,40.0,–,–,phytotoxic at 15 and 45 micromolar,–,< 4.00,more than 32 times
